The target in assay [1] is CDK4/cyclin D1 (Homo sapiens (Human), UniProt P11802). In words: Biochemical kinase inhibitory assay, CDK4/cyclin D1. Particulars: recombinant CDK4/cyclin D1; in the presence of 10 μM ATP. As for the experimental part: Potency determination in the biochemical kinase inhibitory assay. Kinase activity assay and IC50 determination. […] The kinase reaction was initiated by the addition of 1 μg (1.5 μM) of recombinant retinoblastoma protein, 5 μM ATP and 10μ Ci γ-32P-ATP. The reaction was incubated at 30° C. for 20 minutes, and the reaction was stopped by the addition of 2× Laemmli sample buffer, heated at 95° C. for three minutes, and dissolved in 12% acrylamide SDS-PAGE for autoradiography. The corresponding phosphorylated substrate protein bands were quantified using a densitometer (Bio-Rad). […] The reaction took place in the presence of 10 μM ATP.
Sequence of CDK4/cyclin D1 (P11802 whole entry): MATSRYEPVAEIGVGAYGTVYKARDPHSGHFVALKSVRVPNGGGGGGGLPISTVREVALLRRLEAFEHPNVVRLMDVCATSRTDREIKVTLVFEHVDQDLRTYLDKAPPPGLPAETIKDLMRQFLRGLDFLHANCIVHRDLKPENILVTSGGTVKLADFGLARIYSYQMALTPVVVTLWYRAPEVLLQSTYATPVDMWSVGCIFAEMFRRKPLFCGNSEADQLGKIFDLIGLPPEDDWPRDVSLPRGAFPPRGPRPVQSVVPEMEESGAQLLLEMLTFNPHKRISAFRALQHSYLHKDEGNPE
Sequence of CDK4/cyclin D1 (P24385 whole entry partner): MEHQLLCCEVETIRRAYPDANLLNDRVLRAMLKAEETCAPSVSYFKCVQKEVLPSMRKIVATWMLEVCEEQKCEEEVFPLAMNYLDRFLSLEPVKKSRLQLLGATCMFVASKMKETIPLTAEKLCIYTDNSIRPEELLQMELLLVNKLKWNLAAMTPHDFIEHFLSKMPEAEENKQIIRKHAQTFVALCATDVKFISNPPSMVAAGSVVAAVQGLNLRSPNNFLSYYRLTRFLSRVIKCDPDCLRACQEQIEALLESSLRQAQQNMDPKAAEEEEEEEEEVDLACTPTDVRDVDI

In assay [2] the target is CDK6/cyclin D1 (Homo sapiens (Human), UniProt Q00534). The experiment in a line: Biochemical kinase inhibitory assay, CDK6/cyclin D1. To be noted: in the presence of 10 μM ATP. The method, then: Potency determination in the biochemical kinase inhibitory assay. Kinase activity assay and IC50 determination. […] The kinase reaction was initiated by the addition of 1 μg (1.5 μM) of recombinant retinoblastoma protein, 5 μM ATP and 10μ Ci γ-32P-ATP. The reaction was incubated at 30° C. for 20 minutes, and the reaction was stopped by the addition of 2× Laemmli sample buffer, heated at 95° C. for three minutes, and dissolved in 12% acrylamide SDS-PAGE for autoradiography. The corresponding phosphorylated substrate protein bands were quantified using a densitometer (Bio-Rad). […] The compounds disclosed herein were tested in a similar manner for their inhibitory activities against CDK6/cyclin D1, CDK2/cyclin A, CDK5/cyclin P25, CDK9/cyclin Ti, CDK7/cyclin H and CDK19/cyclin C. […] The reaction took place in the presence of 10 μM ATP.
Sequence of CDK6/cyclin D1 (Q00534 whole entry): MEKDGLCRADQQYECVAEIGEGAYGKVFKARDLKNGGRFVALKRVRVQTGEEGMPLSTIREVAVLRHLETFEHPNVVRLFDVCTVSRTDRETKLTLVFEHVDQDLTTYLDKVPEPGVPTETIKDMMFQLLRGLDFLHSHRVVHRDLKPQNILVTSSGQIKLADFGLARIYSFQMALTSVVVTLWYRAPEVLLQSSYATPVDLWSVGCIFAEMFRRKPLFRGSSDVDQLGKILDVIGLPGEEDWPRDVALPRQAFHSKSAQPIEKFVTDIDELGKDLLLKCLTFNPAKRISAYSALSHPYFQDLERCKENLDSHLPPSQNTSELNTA
Sequence of CDK6/cyclin D1 (P24385 whole entry partner): as the sequence (P24385 whole entry partner) above

Structures can show the parent of a compound that is named as a salt.

With `CC(C)n1cnc2ccc3cnc(Nc4ccc(N5CCNCC5)cn4)nc3c21` [Compound I-1, 1-Isopropyl-N-(5-(piperazin-1-yl)pyridin-2-yl)-1H-imidazo[4,5-h]quinazolin-8-amine hydrochloride], the IC50 in assay [1] and in assay [2] was below 2 nM throughout.

`CC(C)n1cnc2ccc3cnc(Nc4ccc(N5CCN(C)CC5)cn4)nc3c21` [Compound I-2, 1-isopropyl-N-(5-(4-methylpiperazin-1-yl)pyridin-2-yl)-1H-imidazo[4,5-h]quinazolin-8-amine]: the IC50 in assay [1] and in assay [2] was 2 to 10 nM throughout.

On to `Cc1cc(Nc2ncc3ccc4ncn(C(C)C)c4c3n2)ncc1N1CCN(C)CC1` [Compound I-3], for which the IC50 in assay [1] and in assay [2] was 2 to 10 nM in each case.

`Cc1nc(Nc2ncc3ccc4ncn(C(C)C)c4c3n2)ccc1N1CCN(C)CC1` [Compound I-4]: the IC50 in assay [1] and in assay [2] was 2 to 10 nM throughout.

As for `CCN1CCN(c2ccc(Nc3ncc4ccc5ncn(C(C)C)c5c4n3)nc2)CC1` [Compound I-5], the IC50 in assay [1] and in assay [2] was below 2 nM each time.

As to `CCN1CCN(c2cnc(Nc3ncc4ccc5ncn(C(C)C)c5c4n3)cc2C)CC1` [Compound I-6], the IC50 in assay [1] and in assay [2] was 2 to 10 nM throughout.

Turning to `CCN1CCN(c2ccc(Nc3ncc4ccc5ncn(C(C)C)c5c4n3)nc2C)CC1` [Compound I-7], the IC50 in assay [1] and in assay [2] was 2 to 10 nM in each case.

Regarding `Cc1cc(Nc2ncc3ccc4ncn(C(C)C)c4c3n2)ncc1N1CCNCC1` [Compound I-8], the IC50 in assay [1] and in assay [2] was below 2 nM in each case.

With `Cc1nc(Nc2ncc3ccc4ncn(C(C)C)c4c3n2)ccc1N1CCNCC1` [Compound I-9], the IC50 in assay [1] and in assay [2] was below 2 nM throughout.

Consider `CC(C)n1cnc2ccc3cnc(Nc4ccc(N5CCN[C@@H](C)C5)cn4)nc3c21` [Compound I-10], for which the IC50 in assay [1] and in assay [2] was 2 to 10 nM each time.

For `CC(C)n1cnc2ccc3cnc(Nc4ccc(N5CCNC(C)(C)C5)cn4)nc3c21` [Compound I-11], the IC50 in assay [1] and in assay [2] was 2 to 10 nM each time.

Consider `CC(C)n1cnc2ccc3cnc(Nc4ccc(N5C[C@@H](C)N[C@@H](C)C5)cn4)nc3c21` [Compound I-12], for which the IC50 in assay [1] and in assay [2] was 2 to 10 nM in each case.

Regarding `CC(C)n1cnc2ccc3cnc(Nc4cc(F)c(N5CCNCC5)cn4)nc3c21` [Compound I-13], the IC50 in assay [1] and in assay [2] was 10 to 50 nM throughout.

For the compound `CC(C)n1cnc2ccc3cnc(Nc4ccc(N5CCCNCC5)cn4)nc3c21` [Compound I-14], the IC50 in assay [1] and in assay [2] was 10 to 50 nM each time.

Regarding `CC(C)n1cnc2ccc3cnc(Nc4ccc(N5CCN(CCO)CC5)cn4)nc3c21` [Compound I-15], the IC50 in assay [1] and in assay [2] was 10 to 50 nM in each case.

On to `CC(C)n1cnc2ccc3cnc(Nc4ccc(N5CCCCC5)cn4)nc3c21` [Compound I-16], for which the IC50 in assay [1] and in assay [2] was 10 to 50 nM throughout.

For `CC(C)n1cnc2ccc3cnc(Nc4ccc(N5CCC(O)CC5)cn4)nc3c21` [Compound I-17], the IC50 in assay [1] and in assay [2] was 10 to 50 nM each time.

Consider `CC(C)n1cnc2ccc3cnc(Nc4ccc(N5CCC(CCCO)CC5)cn4)nc3c21` [Compound I-18], for which the IC50 in assay [1] and in assay [2] was 10 to 50 nM throughout.

In the case of `CC(C)n1cnc2ccc3cnc(Nc4ccc(N5CCC(N(C)C)CC5)cn4)nc3c21` [Compound I-19], the IC50 in assay [1] and in assay [2] was 10 to 50 nM each time.

Regarding `CC(C)n1cnc2ccc3cnc(Nc4ccc(N5CCC(N(C)C)CC5)c(F)n4)nc3c21` [Compound I-20], the IC50 in assay [1] and in assay [2] was 10 to 50 nM throughout.

Regarding `CC(C)n1cnc2ccc3cnc(Nc4ccc(N5CCC(N)CC5)cn4)nc3c21` [Compound I-21], the half-maximal inhibitory concentration (IC50) in assay [1] and in assay [2] was 10 to 50 nM each time.

`CC(C)n1cnc2ccc3cnc(Nc4ccc(N5CCC(N)C5)cn4)nc3c21` (centres unmarked) [Compound I-22]: the IC50 in assay [1] and in assay [2] was 10 to 50 nM throughout.

Regarding `CC(C)n1cnc2ccc3cnc(Nc4ccc(N5CCOCC5)cn4)nc3c21` [Compound I-23], the IC50 in assay [1] and in assay [2] was below 2 nM each time.

For the compound `Cc1cc(Nc2ncc3ccc4ncn(C(C)C)c4c3n2)ncc1N1CCOCC1` [Compound I-24], the concentration for half-maximal inhibition (IC50) in assay [1] and in assay [2] was 2 to 10 nM in each case.

With `Cc1nc(Nc2ncc3ccc4ncn(C(C)C)c4c3n2)ccc1N1CCOCC1` [Compound I-25], the 50% inhibitory concentration (IC50) in assay [1] and in assay [2] was 2 to 10 nM throughout.

Take `CC1CN(c2ccc(Nc3ncc4ccc5ncn(C(C)C)c5c4n3)nc2)CCO1` (centres unmarked) [Compound I-26]: the IC50 in assay [1] and in assay [2] was 2 to 10 nM in each case.

In the case of `CC(C)n1cnc2ccc3cnc(Nc4ccc(N5C[C@@H](C)O[C@@H](C)C5)cn4)nc3c21` [Compound I-27], the IC50 in assay [1] and in assay [2] was 2 to 10 nM each time.

Turning to `CC(C)n1cnc2ccc3cnc(Nc4ccc(N5CCC6(CCNCC6)C5)cn4)nc3c21` [Compound I-28], the IC50 in assay [1] and in assay [2] was 10 to 50 nM each time.

Consider `CC(C)n1cnc2ccc3cnc(Nc4ccc(N5CCC6(CNC6)C5)cn4)nc3c21` [Compound I-29], for which the IC50 in assay [1] and in assay [2] was 10 to 50 nM throughout.

For the compound `CC(C)n1cnc2ccc3cnc(Nc4ccc(N5CC6(CNC6)C5)cn4)nc3c21` [Compound I-30], the IC50 in assay [1] and in assay [2] was 10 to 50 nM each time.

As for `CC(C)n1cnc2ccc3cnc(Nc4ccc(N5CCC6(CC5)CNC6)cn4)nc3c21` [Compound I-31], the IC50 in assay [1] and in assay [2] was 10 to 50 nM throughout.

For the compound `CC(C)n1cnc2ccc3cnc(Nc4ccc(N5CC6(CCNCC6)C5)cn4)nc3c21` [Compound I-32], the IC50 in assay [1] and in assay [2] was 10 to 50 nM throughout.

Regarding `CC(C)n1cnc2ccc3cnc(Nc4ccc(N5CCC6(CCC(=O)N6)CC5)cn4)nc3c21` [Compound I-33], the IC50 in assay [1] and in assay [2] was 10 to 50 nM throughout.

Take `CC(C)n1cnc2ccc3cnc(Nc4ccc(N5CCN(CCO)CC5)cc4)nc3c21` [Compound I-34]: the IC50 in assay [1] and in assay [2] was 10 to 50 nM throughout.

In the case of `CC(C)n1cnc2ccc3cnc(Nc4ccc(N5CCNCC5)cc4F)nc3c21` [Compound I-35], the IC50 in assay [1] and in assay [2] was 10 to 50 nM throughout.

For `COc1cc(OCCN(C)C)ccc1Nc1ncc2ccc3ncn(C(C)C)c3c2n1` [Compound I-36], the IC50 in assay [1] and in assay [2] was 50 to 100 nM throughout.

With `COc1cc(OC2CCN(C)CC2)ccc1Nc1ncc2ccc3ncn(C(C)C)c3c2n1` [Compound I-37], the IC50 in assay [1] and in assay [2] was 50 to 100 nM in each case.

Consider `CC(C)n1cnc2ccc3cnc(Nc4ccc(N5CCC(CCCO)CC5)cc4)nc3c21` [Compound I-38], for which the IC50 in assay [1] and in assay [2] was 10 to 50 nM each time.

Take `COc1ccc2cc(Nc3ncc4ccc5ncn(C(C)C)c5c4n3)ccc2n1` [Compound I-39]: the IC50 in assay [1] and in assay [2] was 50 to 100 nM each time.

With `COc1cc(C(=O)NC2CCN(C)CC2)ccc1Nc1ncc2ccc3ncn(C(C)C)c3c2n1` [Compound I-40], the IC50 in assay [1] and in assay [2] was 50 to 100 nM in each case.

For the origin of these results see US12428423B2, “1H-imidazo[4,5-h]quinazoline compound as protein kinase inhibitor” (SHENGKE PHARMACEUTICALS (JIANGSU) LTD., priority 2017, dated 2025).
